{"source": "patent US20100273205A1", "about": "“Magnetic resonance imaging contrast agents” (priority 2005, published 2010)", "test_system": "formalin-fixed visual cortex (gray and white matter)", "assay": "LFB relaxation enhancement, inversion-recovery spin-echo and multi-echo spin-echo MR at 14T", "parameters": "species or system human", "conditions": "LFB in 95% ethanol then Li2CO3, versus formalin control", "experimental": "Formalin-fixed samples of visual cortex, approximately 1 cm in thickness, were immersed in a mixture of LFB dissolved in a solvent of 95% ethanol (500 mg LFB in 50 ml ethanol) for durations between 48 hours and 3 months. Following LFB staining, the tissue was rinsed in 70% ethanol, rinsed in distilled water, and then immersed in an aqueous solution of lithium carbonate(Li2CO3) (0.25 g Li2CO3 in 500 mL water) until gray-white matter contrast had increased, ranging between approximately 5 minutes and 24 hours. Next, the tissue was rinsed twice more in 70% ethanol and lastly in distilled water. Additional control samples were prepared with 1) formalin only or 2) 95% ethanol followed by immersion in Li2CO3.\nTissue samples were blotted and then immersed in perfluoropolyether (Fomblin, Ausimont USA, Thorofare, N.J.) in a low-pressure environment. […] The low-pressure environment is used to remove artifact-inducing air bubbles from within the tissue.\nData was acquired using a 10 mm birdcage coil in a vertical bore 14T magnet (Magnex Scientific, Oxford, England), with an 89-mm bore and 100 G/cm gradient coil. An inversion-recovery prepared spin-echo sequence and a multi-echo spin-echo sequence were used to determine T1 and T2, respectively. Parameters were estimated in three regions of interest (ROIs), outer gray matter (GMo), inner gray matter (GMi), and white matter (WM), using a nonlinear least-squares fitting routine using the following equations, a:\nSIIR−SE=Mo(1−2αe^−TIIT^1)SISE∝Moe^−TEIT^2\nwhere α represents flip angle deviation from 180° and Mo is the equilibrium magnetization.", "data": [{"substance": "Luxol fast blue [LFB]", "values": [{"measurement": "decrease of T1 in inner gray matter (GMi)", "value": 41, "unit": "%"}, {"measurement": "decrease of T1 in outer gray matter (GMo)", "value": 30, "unit": "%"}, {"measurement": "decrease of T1 in white matter (WM)", "value": 47, "unit": "%"}]}]}
